Laboratory results as given in US20110098309A1, “METHODS OF INHIBITING THE FORMATION OF AMYLOID-BETA DIFFUSABLE LIGANDS USING ACYLHYDRAZIDE COMPOUNDS” (priority 2007, published 2011).

Biological target: Aβ1-42 (Homo sapiens, UniProt P05067)
Test: FRET assay of Aβ1-42 oligomer (ADDL) assembly inhibition
Type: biochemical
Settings: 0.2 μM FITC-Aβ(1-42) and 0.8 μM Aβ(1-42), 37° C., six concentrations from about 10 μM to about 0.03 μM
Excerpt: Fluorescence (or Förster) Resonance Energy Transfer (FRET) is a distance-dependent, non-radiative transfer of energy in which the de-excitation of one fluorophore (donor) is coupled to excitation of another fluorophore (acceptor). FRET occurs if (1) the quantum of energy emitted by a donor fluorophore corresponds to an acceptor fluorophore's excitation energy, (2) the orientations of donor and acceptor transition dipoles are nearly parallel and (3) the donor fluorescent emission spectrum overlaps the acceptor absorption spectrum.
In this assay, assembly of Aβ1-42 oligomer formation is monitored by FRET using N-terminal conjugates of fluorescein-Aβ1-42 as both the donor and acceptor fluorophore (fluorescein-fluorescein Ro˜45 Å). […] Inhibition of Aβ1-42 assembly is observed as the absence or attenuation of fluorescein quenching.
FRET and FP assays are performed in 384-well Corning Non-Binding Surface, black, opaque microtiter plates, and the assay buffer consists of 25 mM MOPS-Tris (pH 8.0) with 100 mM MgCl2. The assay volume, containing 0.2 μM FITC-Aβ(1-42) and 0.8 μM Aβ(1-42), is 50 μl and the temperature is 37° C. […] Kinetic traces are collected by recording fluorescence intensity and polarization readings every five minutes over about a three hour time course. […] Positive control reactions contain all buffer components in the absence of added small molecule or antibody reagents. To test for ADDL assembly inhibition, the compound was incubated with the peptide mixture at six concentrations from about 10 μM decreasing to about 0.03 μM.

Sequence of Aβ1-42 (P05067 672-713 limits assumed): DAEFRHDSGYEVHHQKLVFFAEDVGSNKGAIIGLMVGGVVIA

SMILES: Cc1ccc(C(=O)C/C(=N/NC(=O)c2ccccc2O)C(F)(F)F)s1 [Compound 13, 2-hydroxy-N′-(1,1,1-trifluoro-4-(5-methylthiophen-2-yl)-4-oxobutan-2-ylidene) benzohydrazide]
- IC50: 9.1 µM

SMILES: O=C(N/N=C/c1c(O)ccc2ccccc12)c1ccccc1NS(=O)(=O)c1ccc(Cl)cc1 [Compound 43, 4-chloro-N-(2-(2-((2-hydroxynaphthalen-1-yl)methylene)hydrazinecarbonyl)phenyl) benzenesulfonamide]
- IC50: 3.2 µM

SMILES: Cc1ccc(/C=N/NC(=O)c2ccc3c(c2)OCO3)c(O)c1 [Compound 116, N′-(2-hydroxy-4-methylbenzylidene)benzo[d][1,3]dioxole-5-carbohydrazide]
- IC50: 50 µM

SMILES: COc1cccc(/C=N/NC(=O)c2ccccc2O)c1O [Compound 94, 2-hydroxy-N′-(2-hydroxy-3-methoxybenzylidene)benzohydrazide]
- IC50: 24.9 µM

SMILES: COc1ccc(O)c(/C=N/NC(=O)c2cccc3cccc(O)c23)c1 [Compound 105, 8-hydroxy-N′-(2-hydroxy-5-methoxybenzylidene)-1-naphthohydrazide]
- IC50: 36.5 µM

SMILES: COc1ccc(O)c(/C=N/NC(=O)c2c(O)ccc3ccccc23)c1 [Compound 66, 2-hydroxy-N′-(2-hydroxy-5-methoxy-benzylidene)-1-naphtho-hydrazide]
- IC50: 7.7 µM

SMILES: CCOc1cccc(/C=N/NC(=O)c2ccccc2O)c1O [Compound 106, N′-(3-ethoxy-2-hydroxybenzylidene)-2-hydroxybenzohydrazide]
- IC50: 39.2 µM

SMILES: CC(C)(C)C(=O)C/C(=N/NC(=O)c1ccccc1O)C(F)(F)F [Compound 7, 2-hydroxy-N′-(1,1,1-trifluoro-5,5-dimethyl-4-oxohexan-2-ylidene)benzohydrazide]
- IC50: 7.4 µM

SMILES: O=C(N/N=C/c1cc(C2CCCCC2)cc(Cl)c1O)c1ccccc1O [Compound 46, N′-(3-chloro-5-cyclohexyl-2-hydroxybenzylidene)-2-hydroxybenzo-hydrazide]
- IC50: 3.3 µM

SMILES: COc1ccc(O)c(/C=N/NC(=O)c2scc(C)c2Cl)c1 [Compound 70, 3-chloro-N′-(2-hydroxy-5-methoxy-benzylidene)-4-methylthiophene-2-carbohydrazide]
- IC50: 9.4 µM

SMILES: Cc1ccc(C(=O)N/N=C(/CC(=O)c2cccs2)C(F)(F)F)cc1 [Compound 33, 4-methyl-N′-(1,1,1-trifluoro-4-oxo-4-(thiophen-2-yl)butan-2-ylidene)benzohydrazide]
- IC50: 40.8 µM

SMILES: O=C(C/C(=N/NC(=O)c1c(F)cccc1F)C(F)(F)F)c1cccs1 [Compound 35, 2,6-difluoro-N′-(1,1,1-trifluoro-4-oxo-4-(thiophen-2-yl)butan-2-ylidene)benzohydrazide]
- IC50: 41.2 µM

SMILES: COc1ccc(O)c(/C=N/NC(=O)c2cc([N+](=O)[O-])ccc2O)c1 [Compound 104, 2-hydroxy-N′-(2-hydroxy-5-methoxybenzylidene)-5-nitrobenzohydrazide]
- IC50: 35.1 µM

SMILES: COc1ccc(O)c(/C=N/NC(=O)c2ccc(Cl)cc2O)c1 [Compound 51, 4-chloro-2-hydroxy-N′-(2-hydroxy-5-methoxy-benzylidene)benzohydrazide]
- IC50: 4.2 µM

SMILES: Nc1ccc(Cl)cc1/C=N/NC(=O)c1ccccc1N [Compound 93, 2-amino-N′-(2-amino-5-chlorobenzylidene)benzohydrazide]
- IC50: 23.9 µM

SMILES: O=C(N/N=C/c1cc(F)cc(F)c1O)c1ccccc1O [Compound 101, N′-(3,5-difluoro-2-hydroxybenzylidene)-2-hydroxybenzohydrazide]
- IC50: 33.4 µM

SMILES: C/C(CC(=O)c1ccco1)=N\NC(=O)c1sc2cc(F)ccc2c1Cl [Compound 4, 3-chloro-6-fluoro-N′-(4-(furan-2-yl)-4-oxobutan-2-ylidene)benzo[b]-thiophene-2-carbohydrazide]
- IC50: 5.9 µM

SMILES: O=C(N/N=C/c1c(O)ccc2ccccc12)c1cc(C2CC2)n[nH]1 [Compound 103, 3-cyclopropyl-N′-((2-hydroxynaphthalen-1-yl)methylene)-1H-pyrazole-5-carbohydrazide]
- IC50: 34.5 µM

SMILES: COc1cccc(O)c1/C=N/NC(=O)c1ccccc1O [Compound 55, 2-hydroxy-N′-(2-hydroxy-6-methoxy-benzylidene)benzohydrazide]
- IC50: 5.3 µM

SMILES: O=C(C/C(=N/NC(=O)c1sc2ccccc2c1Cl)C(F)(F)F)c1cccs1 [Compound 14, 3-chloro-N′-(1,1,1-trifluoro-4-oxo-4-(thiophen-2-yl)butan-2-ylidene)benzo[b]thiophene-2-carbohydrazide]
- IC50: 9.5 µM

SMILES: Cn1cc(I)c(C(=O)N/N=C/c2c(O)ccc3ccccc23)n1 [Compound 54, N′-((2-hydroxy-naphthalen-1-yl)methylene)-4-iodo-1-methyl-1H-pyrazole-3-carbohydrazide]
- IC50: 5 µM

SMILES: C/C(CC(=O)N1CCC(c2ccccc2)CC1)=N\NC(=O)c1ccccc1O [Compound 29, 2-hydroxy-N′-(4-oxo-4-(4-phenylpiperidin-1-yl)butan-2-ylidene)benzohydrazide]
- IC50: 26.7 µM

SMILES: COc1ccc(O)c(/C=N/NC(=O)c2cccc3c2NC(=O)C3)c1 [Compound 52, N′-(2-hydroxy-5-methoxy-benzylidene)-2-oxoindoline-7-carbohydrazide]
- IC50: 4.2 µM

SMILES: C/C(=N\NC(=O)c1ccccc1O)c1ccc(C)cc1 [Compound 79, 2-hydroxy-N′-(1-p-tolylethylidene) benzohydrazide]
- IC50: 13.3 µM

SMILES: O=C(N/N=C(/CC(=O)N1CCOCC1)C(F)(F)F)c1ccccc1O [Compound 18, 2-hydroxy-N′-(1,1,1-trifluoro-4-morpholino-4-oxobutan-2-ylidene)benzohydrazide]
- IC50: 10.4 µM

SMILES: CC(C)(C)c1ccc(O)c(/C=N/NC(=O)c2ccccc2O)c1 [Compound 47, N′-(5-tert-butyl-2-hydroxybenzylidene)-2-hydroxy-benzohydrazide]
- IC50: 3.5 µM

SMILES: COc1ccc(C(=O)N/N=C/c2cc(OC)ccc2O)c(O)c1 [Compound 76, 2-hydroxy-N′-(2-hydroxy-5-methoxy-benzylidene)-4-methoxy-benzohydrazide]
- IC50: 11.1 µM

SMILES: CCOC(=O)c1c(C)oc2cc(Br)c(O)c(/C=N/NC(=O)c3ccccc3O)c12 [Compound 77, ethyl 6-bromo-5-hydroxy-4-((2-(2-hydroxybenzoyl)hydrazono)methyl)-2-methyl-benzofuran-3-carboxylate]
- IC50: 11.6 µM

SMILES: COc1ccc(O)c(/C=N/NC(=O)c2cccc3cc[nH]c23)c1 [Compound 58, N′-(2-hydroxy-5-methoxy-benzylidene)-1H-indole-7-carbohydrazide]
- IC50: 6.4 µM

SMILES: C/C(=N\NC(=O)c1cc(C)n[nH]1)c1ccccc1O [Compound 112, N′-(1-(2-hydroxyphenyl)ethylidene)-3-methyl-1H-pyrazole-5-carbohydrazide]
- IC50: 45.4 µM

SMILES: O=C(C/C(=N/NC(=O)c1sc2cc(F)ccc2c1Cl)C(F)(F)F)c1cccs1 [Compound 24, 3-chloro-6-fluoro-N′-(1,1,1-trifluoro-4-oxo-4-(thiophen-2-yl)butan-2-ylidene)benzo[b]thiophene-2-carbohydrazide]
- IC50: 16.1 µM

SMILES: COc1ccc(/C=N/NC(=O)c2ccccc2O)c(O)c1 [Compound 81, 2-hydroxy-N′-(2-hydroxy-4-methoxy-benzylidene)benzohydrazide]
- IC50: 15 µM

SMILES: COc1ccc(O)c(/C=N/NC(=O)c2ccccc2N)c1 [Compound 110, 2-amino-N′-(2-hydroxy-5-methoxybenzylidene)benzohydrazide]
- IC50: 42.3 µM

SMILES: CCN(CC)c1ccc(/C=N/NC(=O)c2ccccc2O)c(O)c1 [Compound 80, N'-(4-(diethylamino)-2-hydroxy-benzylidene)-2-hydroxy-benzohydrazide]
- IC50: 14.4 µM

SMILES: COc1ccc(O)c(/C=N/NC(=O)c2cc(F)ccc2O)c1 [Compound 75, 5-fluoro-2-hydroxy-N′-(2-hydroxy-5-methoxy-benzylidene)benzohydrazide]
- IC50: 10.9 µM

SMILES: Cc1csc(C(=O)N/N=C/c2cc(Cl)ccc2O)c1Cl [Compound 92, 3-chloro-N′-(5-chloro-2-hydroxybenzylidene)-4-methylthiophene-2-carbohydrazide]
- IC50: 23.7 µM

SMILES: COc1cc(Br)c(O)c(/C=N/NC(=O)c2ccccc2O)c1 [Compound 109, N′-(3-bromo-2-hydroxy-5-methoxybenzylidene)-2-hydroxybenzohydrazide]
- IC50: 42 µM

SMILES: COc1cccc(-c2ccc(O)c(/C=N/NC(=O)c3ccccc3O)c2)c1 [Compound 48, 2-hydroxy-N′-((4-hydroxy-3′-methoxybiphenyl-3-yl)methylene) benzohydrazide]
- IC50: 3.7 µM

SMILES: COc1ccc(O)c(/C=N/NC(=O)c2cccc(C)c2O)c1 [Compound 63, 2-hydroxy-N′-(2-hydroxy-5-methoxy-benzylidene)-3-methyl-benzohydrazide]
- IC50: 7 µM

SMILES: COc1ccc(O)c(/C=N/NC(=O)c2cc(-c3ccc4c(c3)OCO4)n[nH]2)c1 [Compound 78, 3-(benzo[d][1,3]dioxol-5-yl)-N′-(2-hydroxy-5-methoxybenzylidene)-1H-pyrazole-5-carbohydrazide]
- IC50: 11.6 µM
